Assay results from patent US20080234384A1, “BIARYL AND BIHETEROARYL COMPOUNDS USEFUL IN TREATING IRON DISORDERS” (XENON PHARMACEUTICALS INC., priority 2007, published 2008).
Counter-ions that a name gives are not always drawn.

Molecular target: T1, DMT1 (Homo sapiens, UniProt P49281)
T1 sequence (P49281 1-568): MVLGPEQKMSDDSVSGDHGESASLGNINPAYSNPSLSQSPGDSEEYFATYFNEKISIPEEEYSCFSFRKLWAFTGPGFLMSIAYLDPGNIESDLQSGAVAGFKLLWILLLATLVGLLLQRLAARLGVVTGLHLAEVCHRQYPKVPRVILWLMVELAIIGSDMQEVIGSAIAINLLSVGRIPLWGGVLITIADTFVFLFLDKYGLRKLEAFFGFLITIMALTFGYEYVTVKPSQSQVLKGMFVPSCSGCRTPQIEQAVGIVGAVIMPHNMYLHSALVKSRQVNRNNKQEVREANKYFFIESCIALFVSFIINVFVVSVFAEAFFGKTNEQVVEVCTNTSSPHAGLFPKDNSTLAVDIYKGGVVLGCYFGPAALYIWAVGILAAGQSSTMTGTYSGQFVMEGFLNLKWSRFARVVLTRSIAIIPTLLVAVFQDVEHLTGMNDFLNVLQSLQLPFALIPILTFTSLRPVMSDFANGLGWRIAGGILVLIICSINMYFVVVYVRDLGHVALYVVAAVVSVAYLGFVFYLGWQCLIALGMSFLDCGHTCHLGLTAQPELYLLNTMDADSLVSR
Test: DMT1 Activity Assay (In Vitro Assay)
Assay type: cell-based
Settings: read-out: IC50 Activity Level
Excerpt: In particular, identification of the compounds of the invention ability to modulate, preferably to inhibit, DMT1 activity, can be assessed using a variety of in vitro and in vivo assays, for measuring uptake of reduced iron (Fe^2+). One such protocol involves the screening of chemical agents for ability to modulate the activity of DMT1 thereby identifying it as a modulating agent. The in vitro activity of DMT1 can be measured in cell based assays by either directly measuring iron flux (using a radioactively labelled iron ^55Fe) or by measuring the fluorescence of a cell permeable iron fluorophore such as calcein. Stable cell lines overexpressing DMT1 are exposed to ^55Fe or loaded with calcein and then compound is applied. […] Alternatively, in another format electrophysiological techniques can be used to measure the current or iron or other metals traversing the cell membrane with DMT1 in a Xenopus oocyte or other cell based system (Gunshin et al., Nature, 1997, 31; 388(6641):482-8).
This example discloses various in vitro assay for testing and profiling test agents against DMT1 stably expressed in cells of either an endogenous or recombinant origin. These assays can use stable cell lines overexpressing DMT1 or intestinal cells and intestinal tissue expressing endogenous DMT1. DMT1 function could also be assessed in other cell types that express DMT1. Of greatest relevance would be the erythrocytes (e.g. K562 cells) or hepatocytes (e.g. […]).
DMT1 function can be assessed in a number of ways, including monitoring fluorescence changes of an iron fluorophore (e.g. calcein), monitoring uptake of radiolabelled iron (55Fe or ^59Fe) (Picard et al., J. Biol. Chem., 2000, 275(46):35738-45 and Wetli et al., Chem. Biol. 2006 September; 13(9):965-72), or by assessing the current or transport of iron and other metals into the cells or tissues using standard electrophysiological techniques (Gunshin et al., Nature, 1997, 388(6641):482-8.).
Variations of these assays involve alterations of incubation times, the iron status of the cells and tissues (which may be modulated by chemical chelators or by harvesting from iron deficient animals), the metal cation detected and the pH of the reaction can generally be made by conventional techniques known to those skilled in the art.

Structure (SMILES) | IC50 [µM]
N=C(N)SCCc1ccccc1Sc1ccccc1CCSC(=N)N [Example 1.31, dihydrobromide] | ≥ 1
N#Cc1ccc(Sc2ccc(Cl)cc2CSC(=N)N)c(CSC(=N)N)c1 [Example 2.8, 2-{[2-({[amino(imino)methyl]thio}methyl)-4-chlorophenyl]thio}-5-cyanobenzyl imidothiocarbamate dihydrobromide] | ≥ 1
N=C(N)SCc1ccc(Cl)cc1Oc1cc([N+](=O)[O-])ccc1CSC(=N)N [Example 2.9, 2-[2-({[amino(imino)methyl]thio}methyl)-5-chlorophenoxy]-4-nitrobenzyl imidothiocarbamate dihydrobromide] | ≥ 1
N=C(N)SCc1ccccc1Oc1ccccc1CSC(=N)N [Example 2.15, 2-[2-(2-carbamimidoylsulfanylmethylphenoxy)benzyl]isothiourea dihydrobromide] | ≥ 1
N=C(N)SCc1ccccc1Oc1ccc(Cl)cc1CSC(=N)N [Example 2.16, 2-[2-({[amino(imino)methyl]thio}methyl)-4-chlorophenoxy]benzyl imidothiocarbamate dihydrobromide] | ≥ 1
N=C(N)SCc1ccccc1Oc1cccc(Cl)c1CSC(=N)N [Example 2.17, 2-[2-({[amino(imino)methyl]thio}methyl)-3-chlorophenoxy]benzyl imidothiocarbamate dihydrobromide] | ≥ 1
N=C(N)SCc1ccccc1Oc1cc(Cl)ccc1CSC(=N)N [Example 2.18, 2-[2-({[amino(imino)methyl]thio}methyl)-5-chlorophenoxy]benzyl imidothiocarbamate dihydrobromide] | ≥ 1
N=C(N)SCc1cc([N+](=O)[O-])ccc1Oc1cc(Cl)ccc1CSC(=N)N [Example 2.19, 2-[2-({[amino(imino)methyl]thio}methyl)-5-chlorophenoxy]-5-nitrobenzyl imidothiocarbamate dihydrobromide] | ≥ 1
N=C(N)SCc1cc(Cl)ccc1Oc1ccc([N+](=O)[O-])cc1CSC(=N)N [Example 2.20, 2-[2-({[amino(imino)methyl]thio}methyl)-4-chlorophenoxy]-5-nitrobenzyl imidothiocarbamate dihydrobromide] | ≥ 1
N=C(N)SCc1cccc(CSC(=N)N)c1-c1c(CSC(=N)N)cccc1CSC(=N)N [Example 2.23, biphenyl-2,2′-6,6′-tetrayltetrakis(methylene)tetracarbamimidothioate tetrahydrobromide] | ≥ 1
COC(=O)c1cccc(CSC(=N)N)c1-c1c(CSC(=N)N)cccc1C(=O)OC [Example 2.24, dimethyl 6,6′-bis(carbamimidoylthiomethyl)biphenyl-2,2′-dicarboxylate dihydrobromide] | ≥ 1
N=C(N)SCc1ccccc1C(=O)c1ccccc1CSC(=N)N [Example 2.25, 2-(6-(amidinothiomethyl)phenyl)carbonyl-1-(amidinothiomethyl)benzene dihydrobromide] | 0.1 to 1

More lines, now with the values ahead:

IC50 [µM] | Structure (SMILES)
0.1 to 1 | N=C(N)SCc1cc(F)ccc1Sc1ccc(F)cc1CSC(=N)N [Example 2, 2-[2-(2-carbamimidoylsulfanylmethyl-4-fluoro-phenylsulfanyl)-5-fluoro-benzyl]-isothiourea dihydrobromide]
0.01 to 0.1 | N=C(N)SCc1cc(F)ccc1Sc1ccc([N+](=O)[O-])cc1CSC(=N)N [Example 2.1, 2-{[2-({[amino(imino)methyl]thio}methyl)-4-fluorophenyl]thio}-5-nitrobenzyl imidothiocarbamate dihydrobromide]
0.1 to 1 | CN(C)S(=O)(=O)c1ccc(Sc2ccc(F)cc2CSC(=N)N)c(CSC(=N)N)c1 [Example 2.2, 2-({2-({[amino(imino)methyl]thio}methyl)-4-[(dimethylamino)sulfonyl]phenyl}thio)-5-fluorobenzyl imidothiocarbamate dihydrobromide]
≥ 1 | N=C(N)SCc1ccccc1S(=O)(=O)c1ccccc1CSC(=N)N [Example 2.3, 2-[2-(2-carbamimidoylsulfanylmethylphenylsulfonyl)benzyl]-isothiourea dihydrobromide]
≥ 1 | N=C(N)SCc1cc(F)ccc1S(=O)(=O)c1ccc(F)cc1CSC(=N)N [Example 2.4, 2-[2-(2-carbamimidoylsulfanylmethyl-4-fluorophenylsulfonyl)-5-fluorobenzyl]isothiourea dihydrobromide]
0.1 to 1 | N=C(N)SCc1cc(F)ccc1Sc1cscc1CSC(=N)N [Example 2.5, (4-{[2-({[amino(imino)methyl]thio}methyl)-4-fluorophenyl]thio}-3-thienyl)methyl imidothiocarbamate dihydrochloride]
≥ 1 | N=C(N)SCc1cc(F)ccc1Sc1sccc1CSC(=N)N [Example 2.6, (2-{[2-({[amino(imino)methyl]thio}methyl)-4-fluorophenyl]thio}-3-thienyl)methyl imidothiocarbamate dihydrochloride]
≥ 1 | CS(=O)(=O)c1ccc(CSC(=N)N)c(Sc2ccc(F)cc2CSC(=N)N)c1 [Example 2.7, 2-{[2-({[amino(imino)methyl]thio}methyl)-4-fluorophenyl]thio}-4-(methylsulfonyl)benzyl imidothiocarbamate dihydrochloride]
≥ 1 | N=C(N)SCc1cc(F)ccc1Oc1cccc(Cl)c1CSC(=N)N [Example 2.10, 2-[2-(2-carbamimidoylsulfanylmethyl-3-chlorophenoxy)-5-fluorobenzyl]isothiourea dihydrobromide]
0.1 to 1 | N=C(N)SCc1cc(F)ccc1Oc1ccc(Cl)cc1CSC(=N)N [Example 2.11, 2-[2-(2-carbamimidoylsulfanylmethyl-4-chlorophenoxy)-5-fluorobenzyl]isothiourea dihydrobromide]
0.1 to 1 | N=C(N)SCc1cc(F)ccc1Oc1cc(F)ccc1CSC(=N)N [Example 2.12, 2-[2-(2-carbamimidoylsulfanylmethyl-5-fluorophenoxy)-5-fluorobenzyl]isothiourea dihydrobromide]
0.1 to 1 | N=C(N)SCc1cc(F)ccc1Oc1ccc(F)cc1CSC(=N)N [Example 2.13, 2-[2-(2-carbamimidoylsulfanylmethyl-4-fluorophenoxy)-5-fluorobenzyl]isothiourea dihydrobromide]
0.1 to 1 | N=C(N)SCc1cc(F)ccc1Oc1ccc([N+](=O)[O-])cc1CSC(=N)N [Example 2.14, 2-[2-({[amino(imino)methyl]thio}methyl)-4-fluorophenoxy]-5-nitrobenzyl imidothiocarbamate dihydrobromide]
0.1 to 1 | N=C(N)SCc1ccccc1Oc1ccc(F)cc1CSC(=N)N [Example 2.21, 2-[2-({[amino(imino)methyl]thio}methyl)-4-fluorophenoxy]benzyl imidothiocarbamate dihydrobromide]
0.1 to 1 | N=C(N)SCc1ccccc1C(=O)c1ccc(F)cc1CSC(=N)N [Example 2.26, 2-(6-(amidinothiomethyl)phenyl)carbonyl-1-(amidinothiomethyl)-5-fluorobenzene dihydrobromide]
≥ 1 | N=C(N)SCc1ccccc1C(=O)c1cc(F)ccc1CSC(=N)N [Example 2.27, 2-(6-(amidinothiomethyl)phenyl)carbonyl-1-(amidinothiomethyl)-4-fluorobenzene dihydrobromide]
